Publication PMC10722540, “Red Wine Inspired Chemistry: Hemisynthesis of Procyanidin Analogs and Determination of Their Protein Precipitation Capacity, Octanol–Water Partition, and Stability in Phosphate-Buffered Saline” (Journal of Agricultural and Food Chemistry, 2023)
Read-outs that look alike come from different tables or passages of the source.

Columns and labels:
[1] = target: T1, bovine serum albumin (BSA) (Bos taurus, UniProt P02769); test: Protein precipitation capacity (PPC), turbidimetric well-plate reader assay with BSA, log-normal dose–response model; format: biochemical; details: SE in parentheses; for ED90 (mM) / EC50: BSA 0.1 mM; for EC50: concentration giving 50% of maximal absorbance (420 nm haze), read-out: ED50 (the source's name); for slope: slope parameter of log-normal dose–response model
T1 construct: purchased Sigma-Aldrich (MO, USA)
T1 sequence (P02769 25-607): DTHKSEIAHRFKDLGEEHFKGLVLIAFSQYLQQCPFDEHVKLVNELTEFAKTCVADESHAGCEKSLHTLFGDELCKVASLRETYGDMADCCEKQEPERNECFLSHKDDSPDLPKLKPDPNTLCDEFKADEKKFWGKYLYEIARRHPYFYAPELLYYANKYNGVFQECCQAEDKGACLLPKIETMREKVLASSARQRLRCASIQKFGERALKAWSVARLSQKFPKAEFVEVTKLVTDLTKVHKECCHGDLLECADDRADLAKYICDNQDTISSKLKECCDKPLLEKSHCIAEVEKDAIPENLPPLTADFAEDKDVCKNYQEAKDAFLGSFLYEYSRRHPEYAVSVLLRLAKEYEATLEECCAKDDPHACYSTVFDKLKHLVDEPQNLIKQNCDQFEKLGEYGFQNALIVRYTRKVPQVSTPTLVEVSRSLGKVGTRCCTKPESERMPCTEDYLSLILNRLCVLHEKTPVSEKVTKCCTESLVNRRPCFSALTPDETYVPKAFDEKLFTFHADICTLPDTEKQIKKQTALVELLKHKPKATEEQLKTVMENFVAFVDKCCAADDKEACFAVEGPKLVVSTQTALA
Experimental: (§1) PPC was measured by using the turbidimetric well-plate reader assay of Engström et al. (2019), with few modifications to the volumes of the reactants and to the number of replicates, for instance. The analyzes of the supernatants were done following Engström et al. (2022).[21] Briefly, 75 μL of BSA solution and 75 μL of the solutions of compounds 2–14 were pipetted to well plates, and the intensity of the forming haze was measured periodically at 420 nm using a well-plate reader. The PPC of the PC analogue 1 was not measured because it was not soluble in suitable solvents. The reactions were monitored for 30 min, and the highest intensities were recorded. A single background measurement was done at each concentration with all the components in the wells but the BSA. The reactions were done in triplicates (and in duplicates with PC C1), and the concentrations of the compounds 2–14 in the reaction mixtures were 0.25 0.65, 1.05, 1.45, 1.85, and 2.25 mM. The concentration of the BSA was kept constant at 0.1 mM. Therefore, the tested molar ratios to BSA were 2.5:1, 6.5:1, 10.5:1, 14.5:1, 18.5:1, and 22.5:1. After the 30 min, the supernatants and precipitates of the replicates were combined in a 1.5 mL Eppendorf tube and separated by centrifuging. The supernatants were then analyzed by UPLC–DAD using the shorter phenyl column (section 2.4) to quantify the leftover compounds 2–14 and BSA. Leftover BSA was quantified using a separately prepared linear calibration curve (1–125 μM), and the compounds 2–14 were quantified by analyzing the background solutions from the well-plate reader assay and constructing a calibration curve from these analyzes. BSA was quantified at 280 nm and compounds 2–14 at 280–320 nm. The wavelength of maximal UV absorption for compounds 2–14 could not be utilized in quantification because the diode array detector was saturated at the optimal wavelengths due to the high concentrations used in the well-plate reader assay. Therefore, off-optimal wavelengths were chosen for quantification separately for each compound 2–14 to reduce intensities and to obtain linear fits for calibration curves.
All statistical analyzed were performed with R (version 4.2.2) in the integrated development environment Rstudio (version 2022.12.0.353).[23],[24] The PPC data was fitted with a dose–response model using the package drc.[25] Various models, e.g., logit and log-normal models, were compared using the mselect function, and the best fitting model was chosen based on the Akaike’s information criterion and residual error when comparing all models, and log-likelihood was used when comparing nested models. All compounds were assumed to have the same upper and lower asymptotes; the former was estimated from the experimental data, and the latter was fixed at zero.

[2] = Octanol–water partition, shake-flask method; format: physicochemical; details: 200 μM, n-octanol/water, 2 h mixing, SE in parentheses; for logP at 2 h: read-out: log P (log10KOW)
Experimental: The shake-flask method was done using 2 mL Eppendorf tubes and three replicates. […] After mixing, aliquots of 500 μL were transferred to new Eppendorf tubes, and 500 μL of n-octanol was added that had been saturated with water. The solvent systems were mixed in a vortex mixer for 2 h, and then both the water and the n-octanol layers as well as the initial water solution were analyzed by UPLC–DAD using the shorter phenyl column (section 2.4). The chromatograms were integrated using TargetLynx software (version 4.2), and the octanol–water partition coefficient, log P, was calculated as the log10 of the ratio of area in n-octanol phase to the area in water phase. Recovery % was calculated by summing the areas in both phases and dividing the summation with the area measured from the initial water phase.

[3] = Stability in phosphate buffered saline; format: physicochemical; details: for half-life (t1/2) / half-life at 150 μM: 150 μM, first-order kinetics, UV 280 nm; for half-life at 150 μM: phosphate buffered saline, read-out: half-life (t1/2); for stability in phosphate buffered saline (in words): first time point, approx. 15 min after adding PBS; for starting material remaining (in words): after 26 h incubation in PBS
Experimental: The stabilities of the compounds were measured in PBS, which was prepared from commercially available tablets that were dissolved in ultrapure water. The phosphate concentration was 0.01 M, the pH was 7.4, and the potassium and sodium chloride concentrations were 0.0027 and 0.137 M, respectively. […] The compounds were dissolved in 2 mL of the PBS solution in Eppendorf tubes, vortexed for approximately 15 min, and filtered through a 0.2 μm PTFE filter to a 2 mL UPLC vial. The solutions were analyzed with the UPLC-DAD-HESI-Orbitrap-MS instrument using the longer phenyl column (section 2.4), and repeated injections were done every 47.5 min for approximately 12 h. […] The UV chromatograms at 280 nm were integrated using the QuanBrowser module in Xcalibur software (version 4.1.31.9), and the main degradation products were identified in QualBrowser by their high-resolution mass spectra and UV spectra. With each compound, the measured areas were transformed to proportional areas by dividing all areas with the initial area in the first injection of the time series, and the data was further loge transformed and fitted with first-order linear regression curves. The regression curves were supplemented with 95% confidence intervals to visualize the uncertainty in the fitted curves. The half-lives were calculated from the slope (k) parameters of the linear regression model using the following equation: [drawing 1]

[4] = Octanol–water partition, shake-flask method; format: physicochemical; details: for logP / KOW: tentative values, experiment shorter than two hours because the compounds degraded; for logP: read-out: log P (log10KOW)
[5] = target: T1, bovine serum albumin (BSA); test: UPLC–DAD analysis of supernatants from the PPC experiment (proportion of precipitated BSA); format: biochemical
Experimental: as §1

[6] = pH 7.4, PBS pH 7.4, 0.01 M phosphate

| ED90 (mM) [1] | EC50 [1] [µM] | slope [1] | KOW [2] | logP at 2 h [2] | half-life (t1/2) ([3]; PBS pH 7.4, 0.01 M phosphate) [h] | half-life at 150 μM [3, 6] [h] | logP ([4]; n-octanol/water) | KOW [4] | activity based on the proportions of precipitated BSA (in words) [5] | proportion of BSA precipitated ([5]; highest tested concentration of 2.25 mM (molar ratio to BSA 23:1)) | SMILES | stability in phosphate buffered saline (in words) [3] | starting material remaining (in words) [3] | half-life at 150 μM ([3]; PBS pH 7.4, 0.01 M phosphate) [h] | log P (log10KOW) ([4]; 200 μM, n-octanol/water, 2 h mixing, SE in parentheses) |
| --- | --- | --- | --- | --- | --- | --- | --- | --- | --- | --- | --- | --- | --- | --- | --- |
| 3.34 (0.09) mM | 2030 | 2.57 (0.10) | 0.04 (0.00) | -1.37 | – | 6.27 | – | – | – | – | O=C(O)C(c1c(O)cc(O)c2c1O[C@H](c1ccc(O)c(O)c1)[C@@H](O)C2)c1c(O)cc(O)c2c1O[C@H](c1ccc(O)c(O)c1)[C@@H](O)C2 [Compound 3] | – | – | – | – |
| 2.58 (0.06) mM | 1390 | 2.08 (0.07) | 5.28 (0.02) | 0.72 | – | 8.85 | – | – | – | – | Oc1ccc([C@H]2Oc3c(c(O)cc(O)c3C(c3ccco3)c3c(O)cc(O)c4c3O[C@H](c3ccc(O)c(O)c3)[C@@H](O)C4)C[C@@H]2O)cc1O [Compound 5, Catechin–furanmethine–catechin] | – | – | – | – |
| 3.30 (0.08) mM | 2030 | 2.64 (0.11) | 0.02 (0.00) | -1.78 | – | 7 | – | – | – | – | O=C(O)C(c1c(O)cc(O)c2c1O[C@H](c1ccc(O)c(O)c1)[C@H](O)C2)c1c(O)cc(O)c2c1O[C@H](c1ccc(O)c(O)c1)[C@H](O)C2 [Compound 4, Epicatechin–carboxymethine–epicatechin] | – | – | – | – |
| 3.45 (0.10) mM | 2180 | 2.80 (0.13) | 1.46 (0.01) | 0.16 | – | 2.05 | – | – | – | – | Oc1ccc([C@H]2Oc3c(Cc4c(O)cc(O)c5c4O[C@H](c4ccc(O)c(O)c4)[C@H](O)C5)c(O)cc(O)c3C[C@H]2O)cc1O [Compound 2, Epicatechin–methylene–epicatechin] | – | – | – | – |
| 3.32 (0.09) mM | 1830 | 2.15 (0.08) | 2.08 (0.00) | 0.32 | – | 5.82 | – | – | – | – | Oc1ccc([C@H]2Oc3c(c(O)cc(O)c3C(c3ccco3)c3c(O)cc(O)c4c3O[C@H](c3ccc(O)c(O)c3)[C@H](O)C4)C[C@H]2O)cc1O [Compound 6, Epicatechin–furanmethine–epicatechin] | – | – | – | – |

More lines, now with the values behind:

| SMILES | ED90 (mM) [1] | EC50 [1] [µM] | slope [1] | KOW [2] | logP at 2 h [2] | half-life (t1/2) ([3]; PBS pH 7.4, 0.01 M phosphate) [h] | half-life at 150 μM [3, 6] [h] | logP ([4]; n-octanol/water) | KOW [4] | activity based on the proportions of precipitated BSA (in words) [5] | proportion of BSA precipitated ([5]; highest tested concentration of 2.25 mM (molar ratio to BSA 23:1)) | stability in phosphate buffered saline (in words) [3] | starting material remaining (in words) [3] | half-life at 150 μM ([3]; PBS pH 7.4, 0.01 M phosphate) [h] | log P (log10KOW) ([4]; 200 μM, n-octanol/water, 2 h mixing, SE in parentheses) |
| --- | --- | --- | --- | --- | --- | --- | --- | --- | --- | --- | --- | --- | --- | --- | --- |
| Oc1ccc(C(c2c(O)cc(O)c3c2O[C@H](c2ccc(O)c(O)c2)[C@H](O)C3)c2c(O)cc(O)c3c2O[C@H](c2ccc(O)c(O)c2)[C@H](O)C3)cc1O [Compound 8, Epicatechin–catecholmethine–epicatechin] | 2.61 (0.06) mM | 1500 | 2.30 (0.08) | 0.34 (0.00) | -0.47 | 0.917 to 1.4 | 1.4 | – | – | – | – | – | – | – | – |
| Oc1ccc([C@H]2Oc3c(c(O)cc(O)c3C(c3cc(O)c(O)c(O)c3)c3c(O)cc(O)c4c3O[C@H](c3ccc(O)c(O)c3)[C@H](O)C4)C[C@H]2O)cc1O [Compound 10] | 2.41 (0.05) mM | 1440 | 2.48 (0.08) | – | – | – | < 0.25 | -1.18 | 0.07 (0.00) | – | – | completely degraded already at the first time point | – | – | – |
| Oc1cc(O)c2c(c1)O[C@H](c1ccc(O)c(O)c1)[C@H](O)C2 [Compound 16, epicatechin, reference compound] | – | – | – | – | – | – | – | – | – | – | – | – | majority of the starting materials remained | 15 | – |
| Oc1cc(O)c2c(c1)O[C@H](c1ccc(O)c(O)c1)[C@@H](O)C2 [Compound 15, catechin, reference compound] | – | – | – | 2.61 (0.03) | – | – | – | – | – | – | – | – | majority of the starting materials remained | 22.3 | 0.42 (0.00) |
| Oc1cc(O)c2c(c1)O[C@H](c1ccc(O)c(O)c1)[C@H](O)[C@H]2c1c(O)cc(O)c2c1O[C@H](c1ccc(O)c(O)c1)[C@H](O)C2 [Compound 12, PC B2, reference compound] | – | – | – | 0.13 (0.00) | -0.87 | – | 11.6 | – | – | practically inactive | – | – | – | – | – |
| Oc1ccc([C@H]2Oc3c(c(O)cc(O)c3C(c3cc(O)c(O)c(O)c3)c3c(O)cc(O)c4c3O[C@H](c3ccc(O)c(O)c3)[C@@H](O)C4)C[C@@H]2O)cc1O [Compound 9] | 2.61 (0.06) mM | 1400 | 2.04 (0.06) | – | – | – | < 0.25 | -0.85 | 0.14 (0.01) | – | – | completely degraded already at the first time point | – | – | – |
| Oc1ccc(C(c2c(O)cc(O)c3c2O[C@H](c2ccc(O)c(O)c2)[C@@H](O)C3)c2c(O)cc(O)c3c2O[C@H](c2ccc(O)c(O)c2)[C@@H](O)C3)cc1O [Compound 7, Catechin–catecholmethine–catechin] | 2.53 (0.07) mM | 1290 | 1.90 (0.06) | 0.79 (0.00) | -0.1 | 0.917 to 1.4 | 0.917 | – | – | – | – | – | – | – | – |
| Oc1ccc([C@H]2Oc3c(Cc4c(O)cc(O)c5c4O[C@H](c4ccc(O)c(O)c4)[C@@H](O)C5)c(O)cc(O)c3C[C@@H]2O)cc1O [Compound 1] | – | – | – | 5.00 (0.05) | 0.7 | – | 3.45 | – | – | – | – | – | – | – | – |
| Oc1cc(O)c2c(c1)O[C@H](c1ccc(O)c(O)c1)[C@@H](O)[C@@H]2c1c(O)cc(O)c2c1O[C@H](c1ccc(O)c(O)c1)[C@@H](O)C2 [Compound 11, PC B3, reference compound] | – | – | – | 0.16 (0.00) | -0.79 | – | 8.98 | – | – | practically inactive | – | – | – | – | – |
| Oc1cc(O)c2c(c1)O[C@H](c1ccc(O)c(O)c1)[C@H](O)[C@H]2c1c(O)cc(O)c2c1O[C@H](c1ccc(O)c(O)c1)[C@H](O)[C@H]2c1c(O)cc(O)c2c1O[C@H](c1ccc(O)c(O)c1)[C@H](O)C2 [Compound 13, PC C1, reference compound] | 1.57 (0.06) mM | 770 | 1.79 (0.08) | 0.07 (0.00) | -1.17 | – | 30.9 | – | – | – | almost all | – | – | – | – |
